# According to patent publication US5428016A, “Antimicrobial peptide and antimicrobial agent” (Morinaga Milk Industry Co., Ltd., priority 1991, dated 1995):
# Where no end group is shown, it is not given here.
# How the values were obtained:
# Type in all cases: cell-based
# [1] = system: Listeria monocytogenes IDF 1b; settings: 17 h
# Experimental: (§1) The antimicrobial peptides (samples Nos. 1 to 15) were prepared using the same methods as in Examples 1 to 15, and antimicrobial peptide derivatives (samples Nos. 16 to 18) were prepared using the same methods as in Examples 16 to 18, and were sterilized by filtration using a 0.45 μm Millex filter prior to use.
# (§2) Various microbial strains shown in Table 4 in the logarithmic phase of growth were inoculated in a peptone medium which consisted of 1% Bactopeptone (manufactured by Difco Laboratory Co.) at a cell concentration of 10^6 /ml, and 160 μl thereof were incubated for 17 hours at 37° C. (or 30° C.) using a 96-hole microtiter plate (manufactured by Falcon Co.). Each sample was added to each medium at a ratio of 0, 1.5, 3, 6, 12, 25, 50, 100, 125 or 250 μM. The growth of the various microorganisms in the various samples at various concentrations was studied by measuring the light absorption at 660 nm.
# (§3) The microorganisms used in this experiment are available from The Medical School Laboratories of Tokyo University (IID), Japanese Physicochemical Laboratories (JCM), Japanese International Dairy Federation (IDF), and the storage at the laboratory of the applicant (MMI).
# [2] = system: Staphylococcus aureus JCM 2151; settings: JCM 2151, 17 h
# Experimental: as §1, §2, §3
# [3] = system: Klebsiella pneumoniae JCM 1662 T; settings: JCM 1662, 17 h
# Experimental: as §1, §2, §3
# [4] = system: Pseudomonas aeruginosa MMI 603; settings: MMI 603, 17 h
# Experimental: as §1, §2, §3
# [5] = system: Escherichia coli IID 861
# Experimental: as §1, §2, §3
# [6] = system: Escherichia coli MMI 0111; experiment: Antimicrobial spectrum, minimum inhibitory concentration
# Experimental: as §1, §2, §3
substance,measurement,setting,value
"KRNMRK [Sample No. 9, Lys-Arg-Asn-Met-Arg-Lys]",minimum inhibitory concentration (MIC),[1],up to 100 μM
same,minimum inhibitory concentration (MIC),[2],up to 100 μM
"KSRRRQWRMKK [Sample No. 12, Lys-Ser-Arg-Arg-Arg-Gln-Trp-Arg-Met-Lys-Lys]",minimum inhibitory concentration (MIC),[3],up to 50 μM
same,minimum inhibitory concentration (MIC),[1],up to 12 μM
same,minimum inhibitory concentration (MIC),[4],up to 50 μM
same,minimum inhibitory concentration (MIC),[2],up to 12 μM
"KTFQWQRNMRK [Sample No. 14, Lys-Thr-Phe-Gln-Trp-Gln-Arg-Asn-Met-Arg-Lys]",minimum inhibitory concentration (MIC),[3],up to 50 μM
same,minimum inhibitory concentration (MIC),[1],up to 12 μM
same,minimum inhibitory concentration (MIC),[4],up to 50 μM
same,minimum inhibitory concentration (MIC),[2],up to 12 μM
"KTLRWQNEMRK [Sample No. 15, Lys-Thr-Leu-Arg-Trp-Gln-Asn-Glu-Met-Arg-Lys]",minimum inhibitory concentration (MIC),[3],up to 50 μM
same,minimum inhibitory concentration (MIC),[1],up to 12 μM
same,minimum inhibitory concentration (MIC),[4],up to 50 μM
same,minimum inhibitory concentration (MIC),[2],up to 12 μM
"KTRRWQWRMKK [Sample No. 11, Lys-Thr-Arg-Arg-Trp-Gln-Trp-Arg-Met-Lys-Lys]",minimum inhibitory concentration (MIC),[3],up to 50 μM
same,minimum inhibitory concentration (MIC),[1],up to 12 μM
same,minimum inhibitory concentration (MIC),[4],up to 50 μM
same,minimum inhibitory concentration (MIC),[2],up to 12 μM
"KTRRWQWRMKK-NH2 [Sample No. 18, Lys-Thr-Arg-Arg-Trp-Gln-Trp-Arg-Met-Lys-Lys-NH2]",minimum inhibitory concentration (MIC),[5],3 µM
same,minimum inhibitory concentration (MIC),[6],6 µM
"KTVSWQTYMKK [Sample No. 13, Lys-Thr-Val-Ser-Trp-Gln-Thr-Tyr-Met-Lys-Lys]",minimum inhibitory concentration (MIC),[3],up to 50 μM
same,minimum inhibitory concentration (MIC),[1],up to 12 μM
same,minimum inhibitory concentration (MIC),[4],up to 50 μM
same,minimum inhibitory concentration (MIC),[2],up to 12 μM
"KTVSWR [Sample No. 8, Lys-Thr-Val-Ser-Trp-Arg]",minimum inhibitory concentration (MIC),[1],up to 100 μM
same,minimum inhibitory concentration (MIC),[2],up to 100 μM
"RRRQWR [Sample No. 7, Arg-Arg-Arg-Gln-Trp-Arg]",minimum inhibitory concentration (MIC),[1],up to 100 μM
same,minimum inhibitory concentration (MIC),[2],up to 100 μM
"RRWQWR [Sample No. 6, Arg-Arg-Trp-Gln-Trp-Arg]",minimum inhibitory concentration (MIC),[1],up to 100 μM
same,minimum inhibitory concentration (MIC),[2],up to 100 μM
"RWQEMK [Sample No. 10, Arg-Trp-Gln-Glu-Met-Lys]",minimum inhibitory concentration (MIC),[1],up to 100 μM
same,minimum inhibitory concentration (MIC),[2],up to 100 μM
